Drawing on patent US7368567B2, “Arylsulfonyl benzodioxanes, benzoxazines and benzothiazines as 5-HT6 antagonists” (Roche Palo Alto LLC, priority 2004, dated 2008), this text covers melting point for 30 compounds.

`CNC[C@H]1COc2cc(S(=O)(=O)c3ccccc3)ccc2O1` [Compound 5, (6-Benzenesulfonyl-2,3-dihydro-benzo[1,4]dioxin-2-(S)-ylmethyl)-methyl-amine] had a melting point of 218.2 to 220.5 °C.

The compound `O=S(=O)(c1ccccc1)c1ccc2c(c1)O[C@@H](CN1CC1)CO2` (stereo in doubt) came in with a melting point of 203.9 to 206.6 °C.

Take `CN(O)C[C@H]1COc2ccc(S(=O)(=O)c3ccccc3)cc2O1` (stereo in doubt) [Compound 33, N-(7-Benzenesulfonyl-2,3-dihydro-benzo[1,4]dioxin-2-ylmethyl)-N-methylhydroxylamine]: the melting point was in the range of 199.2 to 200.8 °C.

In turn, `COCCNC[C@H]1COc2ccc(S(=O)(=O)c3ccccc3)cc2O1` (stereo in doubt) [Compound 26, (7-Benzenesulfonyl-2,3-dihydro-benzo[1,4]dioxin-2-ylmethyl)-(2-methoxy-ethyl)-amine] came in with a melting point of 169.3 to 171.9 °C.

In the case of `CNC[C@@H]1COc2ccc(S(=O)(=O)c3cccc(C)c3)cc2O1` (stereo in doubt) [Compound 28, Methyl-[7-(toluene-3-sulfonyl)-2,3-dihydro-benzo[1,4]dioxin-2-ylmethyl]-amine], the melting point fell in the range of 99.9 to 106.1 °C.

`O=S(=O)(c1ccccc1)c1ccc2c(c1)O[C@@H](CN1CCC(O)C1)CO2` (stereo in doubt) [Compound 37, 1-(7-Benzenesulfonyl-2,3-dihydro-benzo[1,4]dioxin-2-ylmethyl)-pyrrolidin-3-ol]: the melting point is 94.7 to 96.4 °C.

Turning to `O=S(=O)(c1ccccc1)c1ccc2c(c1)O[C@@H](CN1CCNCC1)CO2` (stereo in doubt) [Compound 30, 1-(7-Benzenesulfonyl-2,3-dihydro-benzo[1,4]dioxin-2-ylmethyl)-piperazine], the melting point was 279.2 to 279.4 °C.

For the compound `COCCNC[C@@H]1COc2ccc(S(=O)(=O)c3cccc(F)c3)cc2O1` (stereo in doubt) [Compound 17, [7-(3-Fluoro-benzenesulfonyl)-2,3-dihydro-benzo[1,4]dioxin-2-ylmethyl]-(2-methoxy-ethyl)-amine], the melting point lay within 193 to 196.9 °C.

`CNC[C@@H]1COc2cc(S(=O)(=O)c3ccccc3)ccc2O1` [Compound 4, (6-Benzenesulfonyl-2,3-dihydro-benzo[1,4]dioxin-2-(R)-ylmethyl)-methyl-amine]: the melting point lay within 219.7 to 225.4 °C.

In turn, `CNC[C@H]1COc2ccc(S(=O)(=O)c3ccc(C)cc3)cc2O1` (stereo in doubt) [Compound 12, Methyl-[7-(toluene-4-sulfonyl)-2,3-dihydro-benzo[1,4]dioxin-2-ylmethyl]-amine] had a melting point of 213 to 214.1 °C.

In turn, `O=S(=O)(c1ccccc1)c1ccc2c(c1)O[C@@H](Cn1ccnc1)CO2` (stereo in doubt) [Compound 34, 1-(7-Benzenesulfonyl-2,3-dihydro-benzo[1,4]dioxin-2-ylmethyl)-1H-imidazole] registered a melting point of 88 to 90 °C.

As for `CNC[C@H]1COc2ccc(S(=O)(=O)c3ccccc3)cc2O1` [Compound 2, (7-Benzenesulfonyl-2,3-dihydro-benzo[1,4]dioxin-2--(S)-ylmethyl)-methyl-amine], the melting point is 240 to 243.6 °C.

`CNC[C@@H]1COc2ccc(S(=O)(=O)c3ccccc3C)cc2O1` (stereo in doubt) [Compound 29, Methyl-[7-(toluene-2-sulfonyl)-2,3-dihydro-benzo[1,4]dioxin-2-ylmethyl]-amine] came in with a melting point of 169 to 170.8 °C.

On to `CC(C)NC[C@H]1COc2ccc(S(=O)(=O)c3ccccc3)cc2O1` (stereo in doubt) [Compound 24, (7-Benzenesulfonyl-2,3-dihydro-benzo[1,4]dioxin-2-ylmethyl)-isopropyl-amine], for which the melting point lay in the range of 224.9 to 228.8 °C.

Compound `NC[C@H]1COc2ccc(S(=O)(=O)c3cccc(F)c3)cc2O1` [Compound 9, C-[7-(3-Fluoro-benzenesulfonyl)-2,3-dihydro-benzo[1,4]dioxin-2-(S)-yl]-methylamine] had a melting point of 224.9 to 227.9 °C.

Turning to `CN(C)C[C@@H]1COc2ccc(S(=O)(=O)c3cccc(F)c3)cc2O1` (stereo in doubt) [Compound 14, [7-(3-Fluoro-benzenesulfonyl)-2,3-dihydro-benzo[1,4]dioxin-2-ylmethyl]-dimethyl-amine], the melting point was 228.7 to 231.3 °C.

`O=S(=O)(c1ccccc1)c1ccc2c(c1)O[C@H](CN1CCCC1)CO2` [Compound 10, 1-(7-Benzenesulfonyl-2,3-dihydro-benzol[1,4]dioxin-2-(R)-ylmethyl)-pyrrolidine] returned a melting point of 75.8 to 112.7 °C.

With `O=S(=O)(c1cccc(F)c1)c1ccc2c(c1)O[C@H](CN1CCC1)CO2` (stereo in doubt) [Compound 16, 1-[7-(3-Fluoro-benzenesulfonyl)-2,3-dihydro-benzo[1,4]dioxin-2-ylmethyl]-azetidine], the melting point was 100.8 to 108.3 °C.

`N=C(N)NC[C@H]1COc2ccc(S(=O)(=O)c3ccccc3)cc2O1` (stereo in doubt) [Compound 31, N-(7-Benzenesulfonyl-2,3-dihydro-benzo[1,4]dioxin-2-ylmethyl)-guanidine] came in with a melting point of 126.5 to 128.3 °C.

As for `O=S(=O)(c1ccccc1)c1ccc2c(c1)O[C@@H](CNCc1ccccc1)CO2` (stereo in doubt) [Compound 21, (7-Benzenesulfonyl-2,3-dihydro-benzo[1,4]dioxin-2-ylmethyl)-benzyl-amine], the melting point fell in the range of 220.9 to 224.9 °C.

Take `CCNC[C@@H]1COc2ccc(S(=O)(=O)c3cccc(F)c3)cc2O1` (stereo in doubt) [Compound 13, Ethyl-[7-(3-fluoro-benzenesulfonyl)-2,3-dihydro-benzo[1,4]dioxin-2-ylmethyl]-amine]: the melting point is 247.5 to 251.3 °C.

As to `CNC[C@H]1COc2ccc(S(=O)(=O)c3cccc(C#N)c3)cc2O1` (stereo in doubt) [Compound 38, 3-(3-Methylaminomethyl-2,3-dihydro-benzo[1,4]dioxine-6-sulfonyl)-benzonitrile], the melting point was in the range of 190.6 to 192.1 °C.

On to `CC(C)NC[C@@H]1COc2ccc(S(=O)(=O)c3cccc(F)c3)cc2O1` (stereo in doubt) [Compound 15, [7-(3-Fluoro-benzenesulfonyl)-2,3-dihydro-benzo[1,4]dioxin-2-ylmethyl]-isopropyl-amine], for which the melting point lay in the range of 242.4 to 243.8 °C.

In turn, `O=S(=O)(c1cccc(F)c1)c1ccc2c(c1)O[C@H](CN1CC1)CO2` (stereo in doubt) showed a melting point of 215.4 to 217.2 °C.

In the case of `NC(=O)NC[C@H]1COc2ccc(S(=O)(=O)c3ccccc3)cc2O1` (stereo in doubt) [Compound 40, (7-Benzenesulfonyl-2,3-dihydro-benzo[1,4]dioxin-2-ylmethyl)-urea], the melting point was in the range of 104.9 to 105.7 °C.

`CN(C)C[C@H]1COc2ccc(S(=O)(=O)c3ccccc3)cc2O1` (stereo in doubt) [Compound 23, (7-Benzenesulfonyl-2,3-dihydro-benzo[1,4]dioxin-2-ylmethyl)-dimethyl-amine] returned a melting point of 232 to 233.5 °C.

As to `O=S(=O)(c1cccc(F)c1)c1ccc2c(c1)O[C@@H](CNCc1ccccc1)CO2` (stereo in doubt) [Compound 11, Benzyl-[7-(3-fluoro-benzenesulfonyl)-2,3-dihydro-benzo[1,4]dioxin-2-ylmethyl]-amine], the melting point is 195.1 to 197.1 °C.

In turn, `CNCC1COc2ccc(S(=O)(=O)c3ccccc3)cc2O1` (racemic) [Compound 1, (+−)-(7-Benzenesulfonyl-2,3-dihydro-benzo[1,4]dioxin-2-ylmethyl)-methyl-amine] gave a melting point of 198 to 199.4 °C.

Consider `CNC[C@@H]1COc2ccc(S(=O)(=O)c3cccc(F)c3)cc2O1` [Compound 8, [7-(3-Fluoro-benzenesulfonyl)-2,3-dihydro-benzo[1,4]dioxin-2-(R)-ylmethyl]-methyl-amine], for which the melting point was in the range of 250.1 to 254.3 °C.

In turn, `CCNC[C@H]1COc2ccc(S(=O)(=O)c3ccccc3)cc2O1` (stereo in doubt) [Compound 27, (7-Benzenesulfonyl-2,3-dihydro-benzo[1,4]dioxin-2-ylmethyl)-ethyl-amine] showed a melting point of 242.2 to 246.7 °C.
